{"source": "patent US20220096467A1", "about": "“COMBINATION OF SELECTIVE ALPHA-ADRENERGIC RECEPTOR AGONIST OR AN ANTICHOLINERGIC AGENT AND LIPOIC ACID AND USES THEREOF” (Cellix Bio Private Limited, priority 2019, published 2022)", "origin": "cited, not measured here", "system": "eyes of patients who had open angle glaucoma", "settings": "150 mg of ALA per day, controls received only topical medical therapy"}
{"smiles": "O=C(O)CCCCC1CCSS1", "note": "(stereo not drawn) [ALA, alpha lipoic acid]", "values": [{"measurement": "Eyes in the study with enhanced color visual fields and visual sensitivity versus the controls", "result": "45-47%"}]}
